Experimental data taken from ChEMBL document CHEMBL3870314, “Design, synthesis, anticancer, antimicrobial activities and molecular docking studies of theophylline containing acetylenes and theophylline containing 1,2,3-triazoles with variant nucleoside derivatives” (Eur J Med Chem, 2016).
Values after ≈ are worked out from the molar mass of the structure shown.

Test system: not listed separately
Assay: Cytotoxicity against human A375 cells after 48 hrs by MTT assay
Type: functional, cell-based
Conditions: A-375, 48 h

| SMILES | IC50 [µM] |
| --- | --- |
| Cn1c(=O)c2c(ncn2CC(=O)OCCc2cn(CC3OC(n4ccc(=O)[nH]c4=O)C4OC(C)(C)OC34)nn2)n(C)c1=O (stereo not drawn) | 54.2 |
| COc1ccc(/C=C\c2cc(OC)c(OC)c(OC)c2)cc1O [COMBRETASTATIN A4] | 0.21 |
| C#CCCCn1cnc2c1c(=O)n(C)c(=O)n2C | 156 |
| CCn1c(=O)ccn(C2OC(Cn3cc(COC(=O)Cn4cnc5c4c(=O)n(C)c(=O)n5C)nn3)C(O)C2O)c1=O (stereo not drawn) | 4.89 |
| CCn1c(=O)ccn(C2OC(Cn3cc(COC(=O)CNC(=O)Cn4cnc5c4c(=O)n(C)c(=O)n5C)nn3)C(O)C2O)c1=O (stereo not drawn) | 5.81 |
| Cn1c(=O)c2c(ncn2CC(=O)OCCCc2cn(CC3OC(n4ccc(=O)[nH]c4=O)C4OC(C)(C)OC34)nn2)n(C)c1=O (stereo not drawn) | 8.23 |
| Cn1c(=O)c2c(ncn2CC(=O)NCC(=O)OCc2cn(CC3OC(n4ccc(=O)[nH]c4=O)C4OC(C)(C)OC34)nn2)n(C)c1=O (stereo not drawn) | 59.8 |
| CCn1c(=O)ccn(C2OC(Cn3cc(COC(=O)Cn4cnc5c4c(=O)n(C)c(=O)n5C)nn3)C(OC)C2OC)c1=O (stereo not drawn) | 62.8 |
| CCn1c(=O)ccn(C2OC(Cn3cc(COC(=O)CNC(=O)Cn4cnc5c4c(=O)n(C)c(=O)n5C)nn3)C(OC)C2OC)c1=O (stereo not drawn) | 77.4 |
| C#CCNC(=O)Cn1cnc2c1c(=O)n(C)c(=O)n2C | 28.2 |

Test system: not listed separately
Assay: Cytotoxicity against human A549 cells after 48 hrs by MTT assay
Type: functional, cell-based
Conditions: A549, 48 h

| SMILES | IC50 [µM] |
| --- | --- |
| Cn1c(=O)c2c(ncn2CC(=O)OCCc2cn(CC3OC(n4ccc(=O)[nH]c4=O)C4OC(C)(C)OC34)nn2)n(C)c1=O (stereo not drawn) | 7.39 |
| COc1ccc(/C=C\c2cc(OC)c(OC)c(OC)c2)cc1O [COMBRETASTATIN A4] | 0.11 |
| C#CCCCn1cnc2c1c(=O)n(C)c(=O)n2C | 55.4 |
| CCn1c(=O)ccn(C2OC(Cn3cc(COC(=O)Cn4cnc5c4c(=O)n(C)c(=O)n5C)nn3)C(O)C2O)c1=O (stereo not drawn) | 2.56 |
| CCn1c(=O)ccn(C2OC(Cn3cc(COC(=O)CNC(=O)Cn4cnc5c4c(=O)n(C)c(=O)n5C)nn3)C(O)C2O)c1=O (stereo not drawn) | 3.57 |
| Cn1c(=O)c2c(ncn2CC(=O)OCCCc2cn(CC3OC(n4ccc(=O)[nH]c4=O)C4OC(C)(C)OC34)nn2)n(C)c1=O (stereo not drawn) | 14.3 |
| Cn1c(=O)c2c(ncn2CC(=O)NCC(=O)OCc2cn(CC3OC(n4ccc(=O)[nH]c4=O)C4OC(C)(C)OC34)nn2)n(C)c1=O (stereo not drawn) | 5.67 |
| CCn1c(=O)ccn(C2OC(Cn3cc(COC(=O)Cn4cnc5c4c(=O)n(C)c(=O)n5C)nn3)C(OC)C2OC)c1=O (stereo not drawn) | 56.8 |
| CCn1c(=O)ccn(C2OC(Cn3cc(COC(=O)CNC(=O)Cn4cnc5c4c(=O)n(C)c(=O)n5C)nn3)C(OC)C2OC)c1=O (stereo not drawn) | 52 |
| C#CCNC(=O)Cn1cnc2c1c(=O)n(C)c(=O)n2C | 114 |

Test system: Pseudomonas aeruginosa
Assay: Antimicrobial activity against Pseudomonas aeruginosa ATCC 10145 incubated overnight by two-fold serial dilution method
Type: functional
Conditions: not given

| SMILES | MIC [µg/mL] |
| --- | --- |
| C#CCCCn1cnc2c1c(=O)n(C)c(=O)n2C | 0.125 (≈ 0.508 µM) |
| CCn1c(=O)ccn(C2OC(Cn3cc(COC(=O)Cn4cnc5c4c(=O)n(C)c(=O)n5C)nn3)C(O)C2O)c1=O (stereo not drawn) | 0.0625 (≈ 0.109 µM) |
| CCn1c(=O)ccn(C2OC(Cn3cc(COC(=O)CNC(=O)Cn4cnc5c4c(=O)n(C)c(=O)n5C)nn3)C(O)C2O)c1=O (stereo not drawn) | 0.0625 (≈ 0.0991 µM) |
| Cn1c(=O)c2c(ncn2CC(=O)OCCCc2cn(CC3OC(n4ccc(=O)[nH]c4=O)C4OC(C)(C)OC34)nn2)n(C)c1=O (stereo not drawn) | 0.0312 (≈ 0.0509 µM) |
| Cn1c(=O)c2c(ncn2CC(=O)NCC(=O)OCc2cn(CC3OC(n4ccc(=O)[nH]c4=O)C4OC(C)(C)OC34)nn2)n(C)c1=O (stereo not drawn) | 0.125 (≈ 0.195 µM) |
| C#CCNC(=O)Cn1cnc2c1c(=O)n(C)c(=O)n2C | 0.0625 (≈ 0.227 µM) |

Test system: Staphylococcus aureus
Assay: Antimicrobial activity against Staphylococcus aureus ATCC 25923 incubated overnight by two-fold serial dilution method
Type: functional
Conditions: not given

| SMILES | MIC [µg/mL] |
| --- | --- |
| C#CCCCn1cnc2c1c(=O)n(C)c(=O)n2C | 0.0312 (≈ 0.127 µM) |
| CCn1c(=O)ccn(C2OC(Cn3cc(COC(=O)Cn4cnc5c4c(=O)n(C)c(=O)n5C)nn3)C(O)C2O)c1=O (stereo not drawn) | 0.0625 (≈ 0.109 µM) |
| CCn1c(=O)ccn(C2OC(Cn3cc(COC(=O)CNC(=O)Cn4cnc5c4c(=O)n(C)c(=O)n5C)nn3)C(O)C2O)c1=O (stereo not drawn) | 0.0625 (≈ 0.0991 µM) |
| Cn1c(=O)c2c(ncn2CC(=O)OCCCc2cn(CC3OC(n4ccc(=O)[nH]c4=O)C4OC(C)(C)OC34)nn2)n(C)c1=O (stereo not drawn) | 0.125 (≈ 0.204 µM) |
| Cn1c(=O)c2c(ncn2CC(=O)NCC(=O)OCc2cn(CC3OC(n4ccc(=O)[nH]c4=O)C4OC(C)(C)OC34)nn2)n(C)c1=O (stereo not drawn) | 0.0312 (≈ 0.0486 µM) |
| C#CCNC(=O)Cn1cnc2c1c(=O)n(C)c(=O)n2C | 0.0156 (≈ 0.0567 µM) |

Test system: not listed separately
Assay: Cytotoxicity against human MCF7 cells after 48 hrs by MTT assay
Type: functional, cell-based
Conditions: MCF7, 48 h

| SMILES | IC50 [µM] |
| --- | --- |
| Cn1c(=O)c2c(ncn2CC(=O)OCCc2cn(CC3OC(n4ccc(=O)[nH]c4=O)C4OC(C)(C)OC34)nn2)n(C)c1=O (stereo not drawn) | 2.4 |
| COc1ccc(/C=C\c2cc(OC)c(OC)c(OC)c2)cc1O [COMBRETASTATIN A4] | 0.18 |
| C#CCCCn1cnc2c1c(=O)n(C)c(=O)n2C | 34.2 |
| CCn1c(=O)ccn(C2OC(Cn3cc(COC(=O)Cn4cnc5c4c(=O)n(C)c(=O)n5C)nn3)C(O)C2O)c1=O (stereo not drawn) | 1.89 |
| CCn1c(=O)ccn(C2OC(Cn3cc(COC(=O)CNC(=O)Cn4cnc5c4c(=O)n(C)c(=O)n5C)nn3)C(O)C2O)c1=O (stereo not drawn) | 2.1 |
| Cn1c(=O)c2c(ncn2CC(=O)OCCCc2cn(CC3OC(n4ccc(=O)[nH]c4=O)C4OC(C)(C)OC34)nn2)n(C)c1=O (stereo not drawn) | 30.6 |
| Cn1c(=O)c2c(ncn2CC(=O)NCC(=O)OCc2cn(CC3OC(n4ccc(=O)[nH]c4=O)C4OC(C)(C)OC34)nn2)n(C)c1=O (stereo not drawn) | 12.6 |
| CCn1c(=O)ccn(C2OC(Cn3cc(COC(=O)Cn4cnc5c4c(=O)n(C)c(=O)n5C)nn3)C(OC)C2OC)c1=O (stereo not drawn) | 2.67 |
| CCn1c(=O)ccn(C2OC(Cn3cc(COC(=O)CNC(=O)Cn4cnc5c4c(=O)n(C)c(=O)n5C)nn3)C(OC)C2OC)c1=O (stereo not drawn) | 59.8 |
| C#CCNC(=O)Cn1cnc2c1c(=O)n(C)c(=O)n2C | 157 |

Test system: not listed separately
Assay: Cytotoxicity against human HT-29 cells after 48 hrs by MTT assay
Type: functional, cell-based
Conditions: HT-29, 48 h

| SMILES | IC50 [µM] |
| --- | --- |
| Cn1c(=O)c2c(ncn2CC(=O)OCCc2cn(CC3OC(n4ccc(=O)[nH]c4=O)C4OC(C)(C)OC34)nn2)n(C)c1=O (stereo not drawn) | 100 |
| COc1ccc(/C=C\c2cc(OC)c(OC)c(OC)c2)cc1O [COMBRETASTATIN A4] | 0.93 |
| C#CCCCn1cnc2c1c(=O)n(C)c(=O)n2C | 160 |
| CCn1c(=O)ccn(C2OC(Cn3cc(COC(=O)Cn4cnc5c4c(=O)n(C)c(=O)n5C)nn3)C(O)C2O)c1=O (stereo not drawn) | 2.19 |
| CCn1c(=O)ccn(C2OC(Cn3cc(COC(=O)CNC(=O)Cn4cnc5c4c(=O)n(C)c(=O)n5C)nn3)C(O)C2O)c1=O (stereo not drawn) | 2.9 |
| Cn1c(=O)c2c(ncn2CC(=O)OCCCc2cn(CC3OC(n4ccc(=O)[nH]c4=O)C4OC(C)(C)OC34)nn2)n(C)c1=O (stereo not drawn) | 12.4 |
| Cn1c(=O)c2c(ncn2CC(=O)NCC(=O)OCc2cn(CC3OC(n4ccc(=O)[nH]c4=O)C4OC(C)(C)OC34)nn2)n(C)c1=O (stereo not drawn) | 59.3 |
| CCn1c(=O)ccn(C2OC(Cn3cc(COC(=O)Cn4cnc5c4c(=O)n(C)c(=O)n5C)nn3)C(OC)C2OC)c1=O (stereo not drawn) | 58.8 |
| CCn1c(=O)ccn(C2OC(Cn3cc(COC(=O)CNC(=O)Cn4cnc5c4c(=O)n(C)c(=O)n5C)nn3)C(OC)C2OC)c1=O (stereo not drawn) | 74.3 |
| C#CCNC(=O)Cn1cnc2c1c(=O)n(C)c(=O)n2C | 19.4 |

Test system: Bacillus cereus
Assay: Antimicrobial activity against Bacillus cereus ATCC 10876 incubated overnight by two-fold serial dilution method
Type: functional
Conditions: not given

| SMILES | MIC [µg/mL] |
| --- | --- |
| C#CCCCn1cnc2c1c(=O)n(C)c(=O)n2C | 0.125 (≈ 0.508 µM) |
| CCn1c(=O)ccn(C2OC(Cn3cc(COC(=O)Cn4cnc5c4c(=O)n(C)c(=O)n5C)nn3)C(O)C2O)c1=O (stereo not drawn) | 0.0625 (≈ 0.109 µM) |
| CCn1c(=O)ccn(C2OC(Cn3cc(COC(=O)CNC(=O)Cn4cnc5c4c(=O)n(C)c(=O)n5C)nn3)C(O)C2O)c1=O (stereo not drawn) | 0.125 (≈ 0.198 µM) |
| Cn1c(=O)c2c(ncn2CC(=O)OCCCc2cn(CC3OC(n4ccc(=O)[nH]c4=O)C4OC(C)(C)OC34)nn2)n(C)c1=O (stereo not drawn) | 0.0312 (≈ 0.0509 µM) |
| Cn1c(=O)c2c(ncn2CC(=O)NCC(=O)OCc2cn(CC3OC(n4ccc(=O)[nH]c4=O)C4OC(C)(C)OC34)nn2)n(C)c1=O (stereo not drawn) | 0.0156 (≈ 0.0243 µM) |
| C#CCNC(=O)Cn1cnc2c1c(=O)n(C)c(=O)n2C | 0.0625 (≈ 0.227 µM) |
